The values below come from ChEMBL document CHEMBL3991601, “The target landscape of clinical kinase drugs” (Science, 2017).

The target of assay [1] is Tyrosine-protein kinase ABL2 (Homo sapiens, UniProt P42684).
Assay [2] has as its target RAC-gamma serine/threonine-protein kinase (Homo sapiens, UniProt Q9Y243).
Assay [3] deals with T1, Aurora kinase A (Homo sapiens, UniProt O14965).
T1 sequence (O14965 whole entry): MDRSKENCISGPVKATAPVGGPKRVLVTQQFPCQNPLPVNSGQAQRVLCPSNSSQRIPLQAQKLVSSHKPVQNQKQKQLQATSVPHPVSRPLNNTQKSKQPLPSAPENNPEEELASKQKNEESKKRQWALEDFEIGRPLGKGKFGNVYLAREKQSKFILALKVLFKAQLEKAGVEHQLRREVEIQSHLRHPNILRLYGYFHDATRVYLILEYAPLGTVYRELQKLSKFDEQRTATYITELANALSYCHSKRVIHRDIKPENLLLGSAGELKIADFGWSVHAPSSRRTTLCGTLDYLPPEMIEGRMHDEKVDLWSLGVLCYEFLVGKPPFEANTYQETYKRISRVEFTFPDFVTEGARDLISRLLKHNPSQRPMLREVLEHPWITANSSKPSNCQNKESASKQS

Assay [4] concerns the target Serine/threonine-protein kinase MRCK beta (Homo sapiens, UniProt Q9Y5S2).
Assay [5] addresses Cyclin-dependent kinase 5 (Homo sapiens, UniProt Q00535).
In assay [6] the target is Serine/threonine-protein kinase/endoribonuclease IRE2 (Homo sapiens, UniProt Q76MJ5).
Sequence of Serine/threonine-protein kinase/endoribonuclease IRE2 (Q76MJ5 whole entry): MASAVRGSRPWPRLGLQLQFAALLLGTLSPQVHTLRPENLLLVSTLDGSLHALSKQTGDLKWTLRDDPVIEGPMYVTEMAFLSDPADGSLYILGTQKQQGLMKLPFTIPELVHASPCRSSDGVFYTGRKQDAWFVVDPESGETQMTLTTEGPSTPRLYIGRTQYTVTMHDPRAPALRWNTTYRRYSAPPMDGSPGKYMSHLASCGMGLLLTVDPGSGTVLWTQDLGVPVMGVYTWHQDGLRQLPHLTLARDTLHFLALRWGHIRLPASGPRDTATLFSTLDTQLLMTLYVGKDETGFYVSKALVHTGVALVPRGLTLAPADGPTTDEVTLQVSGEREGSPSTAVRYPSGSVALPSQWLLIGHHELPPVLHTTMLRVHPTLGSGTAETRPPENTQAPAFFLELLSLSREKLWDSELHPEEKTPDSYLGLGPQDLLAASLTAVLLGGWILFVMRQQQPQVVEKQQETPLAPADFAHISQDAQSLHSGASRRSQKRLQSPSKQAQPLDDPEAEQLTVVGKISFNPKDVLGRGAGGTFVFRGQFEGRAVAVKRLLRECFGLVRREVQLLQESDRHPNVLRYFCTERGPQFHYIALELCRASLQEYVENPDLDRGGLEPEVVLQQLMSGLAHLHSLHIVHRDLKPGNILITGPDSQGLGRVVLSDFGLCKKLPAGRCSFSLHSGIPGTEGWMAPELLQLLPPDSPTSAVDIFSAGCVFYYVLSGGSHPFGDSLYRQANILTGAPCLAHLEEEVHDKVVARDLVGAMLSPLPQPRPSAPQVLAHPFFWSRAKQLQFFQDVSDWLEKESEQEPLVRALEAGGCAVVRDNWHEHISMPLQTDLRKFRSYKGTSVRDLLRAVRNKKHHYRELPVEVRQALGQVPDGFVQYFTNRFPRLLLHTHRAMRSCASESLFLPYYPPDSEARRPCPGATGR
The target in assay [7] is T2, Receptor-type tyrosine-protein kinase FLT3 (Homo sapiens, UniProt P36888).
T2 sequence (P36888 whole entry): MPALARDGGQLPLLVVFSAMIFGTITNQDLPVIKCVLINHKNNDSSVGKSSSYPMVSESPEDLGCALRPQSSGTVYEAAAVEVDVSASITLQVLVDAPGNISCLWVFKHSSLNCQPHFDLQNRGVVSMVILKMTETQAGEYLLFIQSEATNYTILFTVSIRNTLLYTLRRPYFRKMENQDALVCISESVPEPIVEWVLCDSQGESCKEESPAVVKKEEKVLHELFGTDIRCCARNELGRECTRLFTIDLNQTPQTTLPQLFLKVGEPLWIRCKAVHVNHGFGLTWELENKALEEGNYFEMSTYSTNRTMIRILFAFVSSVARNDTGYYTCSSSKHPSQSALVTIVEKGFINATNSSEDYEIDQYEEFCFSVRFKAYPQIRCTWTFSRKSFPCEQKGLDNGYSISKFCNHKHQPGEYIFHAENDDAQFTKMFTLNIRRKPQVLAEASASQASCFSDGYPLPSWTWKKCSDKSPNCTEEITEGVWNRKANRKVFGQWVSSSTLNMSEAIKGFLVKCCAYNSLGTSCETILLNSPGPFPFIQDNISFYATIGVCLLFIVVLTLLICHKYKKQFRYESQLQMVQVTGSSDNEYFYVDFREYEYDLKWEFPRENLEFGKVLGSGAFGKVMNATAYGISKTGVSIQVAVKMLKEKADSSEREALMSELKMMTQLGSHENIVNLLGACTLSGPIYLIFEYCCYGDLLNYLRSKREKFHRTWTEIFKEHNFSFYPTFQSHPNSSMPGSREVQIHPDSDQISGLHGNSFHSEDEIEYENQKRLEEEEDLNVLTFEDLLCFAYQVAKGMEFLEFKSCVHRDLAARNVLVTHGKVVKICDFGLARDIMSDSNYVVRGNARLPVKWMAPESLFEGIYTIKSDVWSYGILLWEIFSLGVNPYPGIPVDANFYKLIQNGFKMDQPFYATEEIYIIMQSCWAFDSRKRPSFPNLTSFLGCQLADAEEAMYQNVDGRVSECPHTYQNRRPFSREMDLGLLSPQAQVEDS

Assay [8] concerns the target NADH dehydrogenase [ubiquinone] 1 alpha subcomplex subunit 13 (Homo sapiens, UniProt Q9P0J0).
The target in assay [9] is T3, Serine/threonine-protein kinase TAO3 (Homo sapiens, UniProt Q9H2K8).
T3 sequence (Q9H2K8 whole entry): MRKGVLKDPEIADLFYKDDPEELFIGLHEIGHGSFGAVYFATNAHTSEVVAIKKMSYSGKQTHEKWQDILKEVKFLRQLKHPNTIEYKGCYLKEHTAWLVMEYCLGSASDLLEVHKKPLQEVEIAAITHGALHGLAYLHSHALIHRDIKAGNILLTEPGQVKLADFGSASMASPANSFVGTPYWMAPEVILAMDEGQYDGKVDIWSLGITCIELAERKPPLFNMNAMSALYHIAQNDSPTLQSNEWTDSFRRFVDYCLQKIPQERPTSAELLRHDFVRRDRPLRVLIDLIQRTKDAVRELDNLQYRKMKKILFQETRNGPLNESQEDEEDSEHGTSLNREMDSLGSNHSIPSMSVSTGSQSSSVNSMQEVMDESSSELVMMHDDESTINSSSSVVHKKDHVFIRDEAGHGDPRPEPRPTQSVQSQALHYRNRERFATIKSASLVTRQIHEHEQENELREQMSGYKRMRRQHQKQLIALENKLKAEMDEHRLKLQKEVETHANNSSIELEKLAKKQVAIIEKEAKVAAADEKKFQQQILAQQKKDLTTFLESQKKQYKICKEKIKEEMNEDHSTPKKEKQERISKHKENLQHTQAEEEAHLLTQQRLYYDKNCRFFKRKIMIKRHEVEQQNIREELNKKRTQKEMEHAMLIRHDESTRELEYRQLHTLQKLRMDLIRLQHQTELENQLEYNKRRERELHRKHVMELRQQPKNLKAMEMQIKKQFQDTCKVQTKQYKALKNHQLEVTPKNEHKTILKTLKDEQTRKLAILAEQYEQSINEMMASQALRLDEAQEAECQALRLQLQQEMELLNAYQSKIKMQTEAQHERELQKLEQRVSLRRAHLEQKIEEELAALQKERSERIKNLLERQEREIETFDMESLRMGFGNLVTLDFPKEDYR

Activity calls are given as the source filed them. Cut-off read from the data, not from the text of the source, for most assays here: actives have a measured Kd and inactives only a lower limit. A value given as a limit tells only on which side of the number the result lay.
Note: in the data inactive means no Kd found up to 30 µM.

Sequence of NADH dehydrogenase [ubiquinone] 1 alpha subcomplex subunit 13 (Q9P0J0 whole entry, one chain of several): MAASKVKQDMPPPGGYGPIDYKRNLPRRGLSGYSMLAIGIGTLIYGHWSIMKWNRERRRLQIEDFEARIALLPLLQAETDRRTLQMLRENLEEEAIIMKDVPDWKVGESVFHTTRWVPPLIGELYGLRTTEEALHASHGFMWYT
Sequence of Cyclin-dependent kinase 5 (Q00535 whole entry): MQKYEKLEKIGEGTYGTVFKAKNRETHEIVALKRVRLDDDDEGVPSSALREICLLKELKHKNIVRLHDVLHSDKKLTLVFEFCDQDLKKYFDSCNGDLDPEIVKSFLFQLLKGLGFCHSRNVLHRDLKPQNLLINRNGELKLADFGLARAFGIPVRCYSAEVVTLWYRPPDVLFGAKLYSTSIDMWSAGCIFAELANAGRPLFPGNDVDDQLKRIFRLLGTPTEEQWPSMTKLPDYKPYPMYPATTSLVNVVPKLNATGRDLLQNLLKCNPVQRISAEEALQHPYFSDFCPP
Sequence of Tyrosine-protein kinase ABL2 (P42684 whole entry): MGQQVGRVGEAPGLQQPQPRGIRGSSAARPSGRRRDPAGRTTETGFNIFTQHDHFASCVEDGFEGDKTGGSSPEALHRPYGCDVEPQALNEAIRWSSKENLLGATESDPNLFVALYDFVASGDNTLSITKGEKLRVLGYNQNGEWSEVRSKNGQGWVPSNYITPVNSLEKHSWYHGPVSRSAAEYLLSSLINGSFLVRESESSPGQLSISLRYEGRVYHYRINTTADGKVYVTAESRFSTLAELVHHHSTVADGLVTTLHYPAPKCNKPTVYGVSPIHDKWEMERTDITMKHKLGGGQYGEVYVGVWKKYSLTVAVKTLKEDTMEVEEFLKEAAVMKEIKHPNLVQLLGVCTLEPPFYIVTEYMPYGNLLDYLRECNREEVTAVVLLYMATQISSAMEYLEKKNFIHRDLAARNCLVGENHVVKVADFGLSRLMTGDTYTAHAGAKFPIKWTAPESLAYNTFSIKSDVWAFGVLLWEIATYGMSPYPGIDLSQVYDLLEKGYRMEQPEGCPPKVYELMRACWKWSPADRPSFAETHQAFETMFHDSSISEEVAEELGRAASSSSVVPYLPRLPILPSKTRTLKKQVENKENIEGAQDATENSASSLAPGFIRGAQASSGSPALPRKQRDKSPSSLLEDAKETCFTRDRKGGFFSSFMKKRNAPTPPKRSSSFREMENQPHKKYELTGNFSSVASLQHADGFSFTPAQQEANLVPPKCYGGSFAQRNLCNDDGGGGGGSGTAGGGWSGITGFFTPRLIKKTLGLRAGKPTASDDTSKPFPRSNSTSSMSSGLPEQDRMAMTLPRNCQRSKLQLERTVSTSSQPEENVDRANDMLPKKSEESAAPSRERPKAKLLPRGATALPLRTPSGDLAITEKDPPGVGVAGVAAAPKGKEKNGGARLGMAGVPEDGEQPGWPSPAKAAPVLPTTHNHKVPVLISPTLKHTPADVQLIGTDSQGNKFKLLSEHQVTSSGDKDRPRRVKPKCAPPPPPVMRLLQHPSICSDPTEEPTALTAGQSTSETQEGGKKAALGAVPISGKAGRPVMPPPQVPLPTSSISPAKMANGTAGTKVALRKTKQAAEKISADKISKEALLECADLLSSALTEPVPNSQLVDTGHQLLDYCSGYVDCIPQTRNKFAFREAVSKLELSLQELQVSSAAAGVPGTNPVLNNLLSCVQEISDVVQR
Sequence of Serine/threonine-protein kinase MRCK beta (Q9Y5S2 whole entry): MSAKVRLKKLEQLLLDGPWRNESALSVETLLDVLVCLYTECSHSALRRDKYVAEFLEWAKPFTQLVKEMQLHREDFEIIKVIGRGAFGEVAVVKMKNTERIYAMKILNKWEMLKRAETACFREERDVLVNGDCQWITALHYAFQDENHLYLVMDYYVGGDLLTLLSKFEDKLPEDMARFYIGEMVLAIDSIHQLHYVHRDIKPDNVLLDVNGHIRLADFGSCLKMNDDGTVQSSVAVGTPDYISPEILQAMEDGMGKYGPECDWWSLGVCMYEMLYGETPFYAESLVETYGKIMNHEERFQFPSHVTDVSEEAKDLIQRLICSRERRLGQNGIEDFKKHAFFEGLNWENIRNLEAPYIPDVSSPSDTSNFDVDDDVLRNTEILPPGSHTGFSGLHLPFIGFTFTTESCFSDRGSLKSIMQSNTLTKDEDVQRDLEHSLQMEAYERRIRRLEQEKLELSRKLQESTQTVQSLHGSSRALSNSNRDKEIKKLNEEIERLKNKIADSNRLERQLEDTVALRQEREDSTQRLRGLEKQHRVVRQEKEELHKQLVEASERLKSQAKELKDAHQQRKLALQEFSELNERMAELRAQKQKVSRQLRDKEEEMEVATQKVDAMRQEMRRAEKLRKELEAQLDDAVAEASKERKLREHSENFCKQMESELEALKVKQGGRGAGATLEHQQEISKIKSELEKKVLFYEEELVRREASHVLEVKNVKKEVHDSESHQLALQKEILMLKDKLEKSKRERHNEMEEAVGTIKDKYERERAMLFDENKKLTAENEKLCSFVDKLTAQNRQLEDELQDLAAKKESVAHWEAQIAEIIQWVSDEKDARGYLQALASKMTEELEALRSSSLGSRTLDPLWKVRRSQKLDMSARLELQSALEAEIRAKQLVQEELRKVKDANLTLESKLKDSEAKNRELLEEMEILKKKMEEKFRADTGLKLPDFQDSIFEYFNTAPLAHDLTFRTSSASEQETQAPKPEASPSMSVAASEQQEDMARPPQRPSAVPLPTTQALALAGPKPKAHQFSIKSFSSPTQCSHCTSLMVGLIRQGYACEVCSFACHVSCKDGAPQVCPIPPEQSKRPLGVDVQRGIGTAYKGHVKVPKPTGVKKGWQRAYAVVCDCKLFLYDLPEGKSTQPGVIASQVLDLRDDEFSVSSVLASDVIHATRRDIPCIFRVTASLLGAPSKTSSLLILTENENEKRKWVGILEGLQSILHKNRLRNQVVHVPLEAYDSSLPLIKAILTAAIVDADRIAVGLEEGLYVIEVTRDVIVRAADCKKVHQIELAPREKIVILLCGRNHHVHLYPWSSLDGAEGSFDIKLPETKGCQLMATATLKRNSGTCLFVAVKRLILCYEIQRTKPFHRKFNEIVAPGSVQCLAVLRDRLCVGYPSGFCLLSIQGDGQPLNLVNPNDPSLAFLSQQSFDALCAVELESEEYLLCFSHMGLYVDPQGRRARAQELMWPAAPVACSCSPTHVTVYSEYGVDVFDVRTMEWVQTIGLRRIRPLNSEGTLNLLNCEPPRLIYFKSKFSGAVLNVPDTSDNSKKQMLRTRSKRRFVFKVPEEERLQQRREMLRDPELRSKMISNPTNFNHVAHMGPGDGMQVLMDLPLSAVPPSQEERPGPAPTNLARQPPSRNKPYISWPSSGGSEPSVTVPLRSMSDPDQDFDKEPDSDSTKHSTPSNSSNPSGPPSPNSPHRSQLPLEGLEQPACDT
Sequence of RAC-gamma serine/threonine-protein kinase (Q9Y243 whole entry): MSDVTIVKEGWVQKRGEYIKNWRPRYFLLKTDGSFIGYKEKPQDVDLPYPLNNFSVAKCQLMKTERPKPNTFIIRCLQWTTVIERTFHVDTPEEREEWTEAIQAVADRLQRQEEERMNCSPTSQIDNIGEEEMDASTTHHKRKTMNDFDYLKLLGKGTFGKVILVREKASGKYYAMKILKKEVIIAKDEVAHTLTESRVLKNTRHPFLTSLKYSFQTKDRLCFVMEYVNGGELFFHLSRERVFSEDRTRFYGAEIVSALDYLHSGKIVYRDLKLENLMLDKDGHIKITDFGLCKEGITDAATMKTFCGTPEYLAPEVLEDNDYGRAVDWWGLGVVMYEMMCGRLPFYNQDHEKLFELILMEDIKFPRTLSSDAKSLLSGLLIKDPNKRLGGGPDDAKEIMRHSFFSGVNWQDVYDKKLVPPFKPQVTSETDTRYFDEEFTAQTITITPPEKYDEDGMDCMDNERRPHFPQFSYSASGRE

As for `CNC(=O)CN1CCC(Oc2cc3c(Nc4cccc(Cl)c4F)ncnc3cc2OC)CC1` [SAPITINIB], the Kd in assay [1], in [2], in [3], in assay [4], in assay [5] and in assay [6] was > 30 µM (inactive) throughout. Moreover, the Kd in assay [7], in assay [8] and in [9] was > 30 µM (inactive) in each case.

With `Cc1cc([C@@H](C)Nc2ccccc2C(=O)O)c2nc(N3CCOCC3)cc(=O)n2c1` [AZD-6482], the Kd in assay [1], in [2], in assay [3], in [4], in assay [5] and in assay [6] was > 30 µM (inactive) in each case. Also, the Kd in [7], in assay [8] and in assay [9] was > 30 µM (inactive) throughout.

In the case of `CCN1CCN(Cc2ccc(-c3cc4c(N[C@H](C)c5ccccc5)ncnc4[nH]3)cc2)CC1` [AEE-788], the Kd is 14.9 µM (active) in assay [1]; > 30 µM (inactive) in assay [2]; > 30 µM (inactive) in [3]; > 30 µM (inactive) in assay [4]; > 30 µM (inactive) in assay [5]; > 30 µM (inactive) in [6]. Besides, the Kd in assay [7], in assay [8] and in [9] was > 30 µM (inactive) throughout.

For `CN1N=C(N)c2cn([C@@H]3O[C@H](COP(=O)(O)O)[C@@H](O)[C@H]3O)c3ncnc1c23` [TRICIRIBINE PHOSPHATE], the Kd in assay [1], in [2], in assay [3], in assay [4], in assay [5] and in assay [6] was > 30 µM (inactive) each time. Also, the Kd in [7], in assay [8] and in assay [9] was > 30 µM (inactive) each time.

For `CC(=O)Nc1cccc(-n2c(=O)n(C3CC3)c(=O)c3c(Nc4ccc(I)cc4F)n(C)c(=O)c(C)c32)c1` [TRAMETINIB], the Kd in assay [1], in assay [2], in assay [3], in [4], in assay [5] and in assay [6] was > 30 µM (inactive) throughout. For the same compound, the Kd in assay [7], in [8] and in [9] was > 30 µM (inactive) in each case.

For orientation: Kd means the free concentration of one partner at which half of the binding sites on the other are occupied at equilibrium, for simple one-to-one binding.
